Laboratory results as given in BindingDB's records for doi:10.1016/j.bmc.2009.11.062 (Medical University of Lublin, 2010).

Experiment: Agonist activity beta2-adrenergic receptor in rat ventricular myocytes assessed as cell contraction following electrical stimulation by optical edge tracking method using photodiode array

`CC[C@H](Cc1ccc(O)cc1)NC[C@H](O)c1cc(O)cc(O)c1` showed an EC50 of 8550 nM.

With `C[C@H](Cc1ccc2ccccc2c1)NC[C@H](O)c1cc(O)cc(O)c1` the EC50 was 133 nM.

Work on `COc1ccc(C[C@@H](C)NC[C@H](O)c2cc(O)cc(O)c2)c2ccccc12` yielded an EC50 of 16 nM.
